In ChEMBL document CHEMBL4354851, “Aggregation-Induced Emission Photosensitizers: From Molecular Design to Photodynamic Therapy” (2020):

What was measured:
[1] = Induction of […] generation assessed as bleaching rate of ABDA under white light irradiation relative to control; format: functional
HeLa = test: Photodynamic activity in human HeLa cells assessed as light dose required to kill 50% of cells by fluorescein diacetate and propidium iodide dye based fluorescence assay; format: functional

SMILES	Activity [1] [%]	Activity (HeLa) [kJ/cm2]
C=Cc1c(C)c2cc3nc(c(CC(=O)O)c4[nH]c(cc5nc(cc1[nH]2)C(C)=C5CC)c(C)c4C(=O)O)C(CCC(=O)O)C3C (centres undefined)	16.7	–
O=C(O)c1c(Cl)c(Cl)c(Cl)c(Cl)c1-c1c2cc(I)c(=O)c(I)c-2oc2c(I)c(O)c(I)cc12	55.6	–
CCC[n+]1cc2ccc(-c3ccc(N(c4ccccc4)c4ccccc4)cc3)cc2c(-c2ccccc2)c1-c1ccccc1.F[B-](F)(F)F	–	3.7
Cc1ccc(N(c2ccc(C)cc2)c2ccc(-c3ccc(/C=C/c4cc[n+](C)cc4)s3)cc2)cc1	90.7	–
